Assay results reported in article PMC10660311 (ACS Chemical Biology, 2023).

Experiments:
[1] = molecular target: T1, DTX3L/PARP9 complex (Homo sapiens, UniProt Q8IXQ6+Q8TDB6); assay: FP binding of fluorescent AR peptides to DTX3L/PARP9 complex; settings: 50 nM peptide, RT 45 min, triplicate
T1 construct: made in house; host or cells: Sf21 insect cells
Protocol: Figure 2 Interaction of DTX3L/PARP9 and ADP-ribosylated AR peptides measured by FP assays. […] The reaction mixture was incubated at RT for 45 min, FP measured in a PHERAstar FSX Microplate Reader (BMG Labtech), and the binding curves were fitted for specific binding with GraphPad Prism v 9.3.1. The error bars represent the standard deviations.
Recombinant PARP9, DTX3L, and DTX3LΔN (N-terminal deletion mutant) were expressed in Sf21 insect cells and purified as previously described.[14] Complex formation of DTX3L/PARP9 or DTX3LΔN/PARP9 was carried out in an equal-molar ratio by incubating the proteins at >1 mg mL^–1 for each on ice for ∼4 h. Fluorescently labeled AR peptides (50 nM final concentration) 1–5 were mixed with various concentrations of the individual recombinant proteins or the protein complexes in a reaction buffer containing 20 mM Tris–HCl (pH 7.5), 50 mM NaCl, 0.1 mM EDTA, and 2 mM DTT, incubated at RT for 45 min and then measured in a PHERAstar FSX Microplate Reader (BMG Labtech). The assays were performed in triplicate. Competition assays were performed with 50 μM ADP-ribose. After correction for signals due to the fluorescent AR peptide alone, polarization values were plotted and analyzed with Prism (GraphPad) using nonlinear fit for specific binding with Hill slope.

[2] = molecular target: dual ADP-ribosylated AR peptide 1, bis-ADP-ribosylated AR(280-294): CF-RPTPC(ADPr)APLAEC(ADPr)KGSL-OH; assay: fluorescence polarisation; 50 nM CF-labelled AR peptide; recombinant protein or preassembled complex titrated (2500 nM or 2000 nM highest, 2-fold serial dilution); 20 mM Tris-HCl pH 7.5, 50 mM NaCl, 0.1 mM EDTA, 2 mM DTT; RT, 45 min; triplicate; fit for specific binding with Hill slope

| Kd [2] [nM] | Substance | binding to DTX3L/PARP9 (in words) [1] |
| --- | --- | --- |
| – | CF-Arg-Pro-Thr-Pro-Cys(5-O-adenosine-diphosphate-α-D-ribosyl)-Ala-Pro-Leu-Ala-OH [Peptide 3, CF-labeled mono-ADPr AR peptide] | near-background level of binding |
| – | CF-Pro-Leu-Ala-Glu-Cys(5-O-adenosine-diphosphate-α-D-ribosyl)-Lys-Gly-Ser-Leu-OH [Peptide 2, CF-labeled mono-ADPr AR peptide] | near-background level of binding |
| – | CF-RPTPCAPLAECKGSL-OH [Peptide 6] | did not bind significantly |
| > 500 | DTX3LΔN/PARP9 complex (from UniProt Q8TDB6 1-740; Q8IXQ6 1-854) | – |
